Results: the NIST ThermoML archive (doi:10.1021/acs.jced.5b00989)

Experiment: molar heat capacity at constant pressure; xn = mol fraction of the nth substance listed
Conditions: 100 kPa, Liquid, Small sample (50 mg) DSC

CCCC[N+](CCCC)(CCCC)CCCC.[Cl-] [tetrabutylammonium chloride] + OCC(O)CO
x1 = 0.17
Conditions	molar heat capacity at constant pressure [J/K/mol]
298.2 K	281.2
300.7 K	282.5
303.2 K	283.9
305.7 K	285.4
308.2 K	286.9
310.7 K	288.1
313.2 K	289.4
315.7 K	290.7
318.2 K	292
320.7 K	293.4
323.2 K	294.5
325.7 K	296.1
328.2 K	297.4
330.7 K	298.9
333.2 K	300.4
335.7 K	301.9
338.2 K	303.2
340.7 K	304.6
343.2 K	305.7
345.7 K	306.9
348.2 K	307.8
350.7 K	308.6
353.2 K	310.9

CCCC[N+](CCCC)(CCCC)CCCC.[Cl-] [tetrabutylammonium chloride] + OCCO
x1 = 0.25
Conditions	molar heat capacity at constant pressure [J/K/mol]
298.2 K	288.3
300.7 K	289.6
303.2 K	291
305.7 K	292.2
308.2 K	293.2
310.7 K	294.5
313.2 K	295.8
315.7 K	296.8
318.2 K	297.9
320.7 K	299.5
323.2 K	300.5
325.7 K	301.2
328.2 K	302.4
330.7 K	303.5
333.2 K	304.8
335.7 K	305.9
338.2 K	306.9
340.7 K	307.7
343.2 K	308.5
345.7 K	309.1
348.2 K	309.6
350.7 K	310.6
353.2 K	312.6

CCCC[N+](CCCC)(CCCC)CCCC.[Cl-] [tetrabutylammonium chloride] + OCCOCCOCCO
x1 = 0.5
Conditions	molar heat capacity at constant pressure [J/K/mol]
298.2 K	445
300.7 K	447.8
303.2 K	448.9
305.7 K	450.6
308.2 K	452.3
310.7 K	454.2
313.2 K	456.1
315.7 K	457.4
318.2 K	458.7
320.7 K	460.2
323.2 K	461.9
325.7 K	463
328.2 K	464.5
330.7 K	466.2
333.2 K	467.7
335.7 K	469.2
338.2 K	471.1
340.7 K	472.6
343.2 K	473.7
345.7 K	475.2
348.2 K	475.6
350.7 K	476
353.2 K	479.7

OCCOCCOCCO [triethylene glycol] + C[N+](C)(C)CCO.[Cl-]
x2 = 0.33
Conditions	molar heat capacity at constant pressure [J/K/mol]
298.15 K	299
300.65 K	300.3
303.15 K	301.5
305.65 K	302.8
308.15 K	303.7
310.65 K	304.5
313.15 K	304.7
315.65 K	304.6
318.15 K	304.6
320.65 K	304.3
323.15 K	304.3
325.65 K	304.9
328.15 K	305.8
330.65 K	306.7
333.15 K	307.4
335.65 K	308.6
338.15 K	309.4
340.65 K	309.9
343.15 K	310
345.65 K	311.8
348.15 K	312.2
350.65 K	312.4
353.15 K	314.6
